Assay results from patent US20240218022A1, “ANTI-VISTA MACROCYCLIC PEPTIDES AND COMPOSITIONS” (BRISTOL-MYERS SQUIBB COMPANY, priority 2022, published 2024).
Starred links: 1 amine or outer side, 2 acyl side, 3 side chain; linkers in the order of their positions; H or OH if unused. Positions of bridges follow the written chain, without caps; N, C: chain ends. Non-standard residues stand in square brackets, D forms with d. Residues, ends and D or L forms follow the SMILES beside them. Phe(3-Me) = Cc1cccc(C[C@H](N)C(=O)O)c1; γGlu = O=C(O)[C@H](CCC(=O)[*:2])N[*:1]; 2Nal = N[C@@H](Cc1ccc2ccccc2c1)C(=O)O; NMeL = CN[C@@H](CC(C)C)C(=O)O; Ahp(2) = CCCCC[C@H](N)C(=O)O; NMeNle = CCCC[C@H](NC)C(=O)O; Tle = CC(C)(C)[C@H](N)C(=O)O; NHexGly = CCCCCCNCC(=O)O; Nle = CCCC[C@H](N)C(=O)O; Aun = NCCCCCCCCCCC(=O)O; AEEA = NCCOCCOCC(=O)O

Biological target: T1, mouse VISTA (mVISTA) (Mus musculus, UniProt Q9D659)
T1 construct: expressed in transfected cells; host or cells: Human embryonic kidney 293T cells
T1 sequence (Q9D659 33-308): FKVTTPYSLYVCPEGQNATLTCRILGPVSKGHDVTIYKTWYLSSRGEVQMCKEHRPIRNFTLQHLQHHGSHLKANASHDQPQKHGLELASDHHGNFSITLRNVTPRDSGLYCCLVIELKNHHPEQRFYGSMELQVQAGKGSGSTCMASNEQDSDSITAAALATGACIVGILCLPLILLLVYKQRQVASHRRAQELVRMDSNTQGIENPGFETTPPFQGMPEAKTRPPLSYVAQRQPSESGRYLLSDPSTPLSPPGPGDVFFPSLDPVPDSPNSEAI
Assay: Cell-Based Binding High-Content Assay For mVISTA (HC CBA mVISTA)
Conditions: read-out: HC CBA mVISTA IC50
Outline: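 Competition of compound with a biotinylated peptide (final 2 nM, 30 min at RT) for binding to mVISTA on 293T cells, run under no-wash or wash (1 h compound preincubation then removal) formats. Readout by Alexa 647–streptavidin imaging on a high-content platform; four-parameter logistic fit gave IC50.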

Compound	IC50 [nM]
CCCCCCN1CC(=O)N[C@@H](Cc2ccc(O)cc2)C(=O)N[C@@H](CC(C)C)C(=O)N[C@@H](CC(N)=O)C(=O)N[C@@H](CCCNC(=N)N)C(=O)N[C@@H](CC(C)C)C(=O)N[C@@H](CCCCC)C(=O)N2CCC[C@H]2C(=O)N[C@@H](C(C)C)C(=O)N[C@@H](C(C)C)C(=O)N[C@H](C(=O)NCCOCCOCC(=O)N[C@@H](CCC(=O)NCCOCCOCC(=O)NCCCCCCCCCCC(=O)O)C(=O)O)CSCC(=O)N[C@@H](Cc2ccccc2)C(=O)N[C@@H](Cc2ccc(O)cc2)C(=O)N[C@@H](CC(=O)O)C1=O [compound 2217] ({CH2CO}-FYD[NHexGly]YLNRL[Ahp(2)]PVVC[AEEA][γGlu][AEEA][Aun]-OH; thioether N-14)	13.1
CCCCCCN1CC(=O)N[C@@H](Cc2ccc(O)cc2)C(=O)N[C@@H](CCCC)C(=O)N[C@@H](CC(N)=O)C(=O)N[C@@H](CCCNC(=N)N)C(=O)N(C)[C@@H](CCCC)C(=O)N[C@@H](CCCCC)C(=O)N2CCC[C@H]2C(=O)N[C@@H](C(C)C)C(=O)N[C@@H](CC(=O)O)C(=O)N[C@H](C(=O)NCCOCCOCC(=O)N[C@@H](CCC(=O)NCCOCCOCC(=O)NCCCCCCCCCCC(=O)O)C(=O)O)CSCC(=O)N[C@@H](Cc2ccccc2)C(=O)N[C@@H](Cc2c[nH]c3ccccc23)C(=O)N[C@@H](CC(=O)O)C1=O [compound 2218] ({CH2CO}-FWD[NHexGly]Y[Nle]NR[NMeNle][Ahp(2)]PVDC[AEEA][γGlu][AEEA][Aun]-OH; thioether N-14)	11.5
CCCCCCN1CC(=O)N[C@@H](Cc2ccc(O)cc2)C(=O)N[C@@H](C(C)C)C(=O)NCC(=O)N[C@@H](CCCNC(=N)N)C(=O)N[C@@H](CC(C)C)C(=O)N[C@@H](CCCCC)C(=O)N2CCC[C@H]2C(=O)N[C@@H](C(C)C)C(=O)N[C@@H](CC(=O)O)C(=O)N[C@H](C(=O)NCCOCCOCC(=O)N[C@@H](CCC(=O)NCCOCCOCC(=O)NCCCCCCCCCCC(=O)O)C(=O)O)CSCC(=O)N[C@@H](Cc2ccc3ccccc3c2)C(=O)N[C@@H](Cc2ccc(O)cc2)C(=O)N[C@@H](CC(=O)O)C1=O [compound 2219] ({CH2CO}-[2Nal]YD[NHexGly]YVGRL[Ahp(2)]PVDC[AEEA][γGlu][AEEA][Aun]-OH; thioether N-14)	24
CCCCCCN1CC(=O)N[C@@H](Cc2ccc(O)cc2)C(=O)N[C@@H](CC(C)C)C(=O)N[C@@H](CC(N)=O)C(=O)N[C@@H](CCCNC(=N)N)C(=O)N[C@@H](CC(C)C)C(=O)N[C@@H](CCCCC)C(=O)N2CCC[C@H]2C(=O)N[C@@H](C(C)C)C(=O)N[C@@H](C(C)C)C(=O)N[C@H](C(=O)NCCOCCOCC(=O)N[C@@H](CCC(=O)NCCOCCOCC(=O)NCCCCCCCCCCC(=O)O)C(=O)O)CSCC(=O)N[C@@H](Cc2ccccc2)C(=O)N[C@@H](Cc2cccc(C)c2)C(=O)N[C@@H](CC(=O)O)C1=O [compound 2221] ({CH2CO}-F[Phe(3-Me)]D[NHexGly]YLNRL[Ahp(2)]PVVC[AEEA][γGlu][AEEA][Aun]-OH; thioether N-14)	33.5
CCCCCCN1CC(=O)N[C@@H](Cc2ccc(O)cc2)C(=O)N[C@@H](CCCC)C(=O)N[C@@H](CC(N)=O)C(=O)N[C@@H](CCCNC(=N)N)C(=O)N[C@@H](CC(C)C)C(=O)N[C@@H](CCCCC)C(=O)N2CCC[C@H]2C(=O)N[C@@H](C(C)C)C(=O)N[C@@H](CC(=O)O)C(=O)N[C@H](C(=O)NCCOCCOCC(=O)N[C@@H](CCC(=O)NCCOCCOCC(=O)NCCCCCCCCCCC(=O)O)C(=O)O)CSCC(=O)N[C@@H](Cc2cccc(C)c2)C(=O)N[C@@H](Cc2c[nH]c3ccccc23)C(=O)N[C@@H](CC(=O)O)C1=O [compound 2222] ({CH2CO}-[Phe(3-Me)]WD[NHexGly]Y[Nle]NRL[Ahp(2)]PVDC[AEEA][γGlu][AEEA][Aun]-OH; thioether N-14)	28.7
CCCCCCN1CC(=O)N[C@@H](Cc2ccc(O)cc2)C(=O)N[C@@H](CCCC)C(=O)N[C@@H](CC(N)=O)C(=O)N[C@@H](CCCNC(=N)N)C(=O)N[C@@H](CC(C)C)C(=O)N[C@@H](CCCCC)C(=O)N2CCC[C@H]2C(=O)N[C@@H](C(C)C)C(=O)N[C@@H](CO)C(=O)N[C@H](C(=O)NCCOCCOCC(=O)N[C@@H](CCC(=O)NCCOCCOCC(=O)NCCCCCCCCCCC(=O)O)C(=O)O)CSCC(=O)N[C@@H](Cc2ccc3ccccc3c2)C(=O)N[C@@H](Cc2ccc(O)cc2)C(=O)N[C@@H](CC(=O)O)C1=O [compound 2223] ({CH2CO}-[2Nal]YD[NHexGly]Y[Nle]NRL[Ahp(2)]PVSC[AEEA][γGlu][AEEA][Aun]-OH; thioether N-14)	12.4
CCCCCCN1CC(=O)N[C@@H](Cc2ccc(O)cc2)C(=O)N[C@@H](CCCC)C(=O)N[C@@H](CC(N)=O)C(=O)N[C@@H](CCCNC(=N)N)C(=O)N(C)[C@@H](CCCC)C(=O)N[C@@H](CCCCC)C(=O)N2CCC[C@H]2C(=O)N[C@@H](C(C)(C)C)C(=O)N[C@@H](CO)C(=O)N[C@H](C(=O)NCCOCCOCC(=O)N[C@@H](CCC(=O)NCCOCCOCC(=O)NCCCCCCCCCCC(=O)O)C(=O)O)CSCC(=O)N[C@@H](Cc2ccccc2)C(=O)N[C@@H](Cc2ccc(O)cc2)C(=O)N[C@@H](CC(=O)O)C1=O [compound 2224] ({CH2CO}-FYD[NHexGly]Y[Nle]NR[NMeNle][Ahp(2)]P[Tle]SC[AEEA][γGlu][AEEA][Aun]-OH; thioether N-14)	18.6
CCCCCCN1CC(=O)N[C@@H](Cc2ccc(O)cc2)C(=O)N[C@@H](CCCC)C(=O)N[C@@H](CC(N)=O)C(=O)N[C@@H](CCCNC(=N)N)C(=O)N(C)[C@@H](CCCC)C(=O)N[C@@H](CCCCC)C(=O)N2CCC[C@H]2C(=O)N[C@@H](C(C)(C)C)C(=O)N[C@@H](CO)C(=O)N[C@H](C(=O)NCCOCCOCC(=O)N[C@@H](CCC(=O)NCCOCCOCC(=O)NCCCCCCCCCCC(=O)O)C(=O)O)CSCC(=O)N[C@@H](Cc2ccccc2)C(=O)N[C@@H](Cc2cccc(C)c2)C(=O)N[C@@H](CC(=O)O)C1=O [compound 2225] ({CH2CO}-F[Phe(3-Me)]D[NHexGly]Y[Nle]NR[NMeNle][Ahp(2)]P[Tle]SC[AEEA][γGlu][AEEA][Aun]-OH; thioether N-14)	30.8
CCCCCCN1CC(=O)N[C@@H](Cc2ccc(O)cc2)C(=O)N[C@@H](CCCC)C(=O)N[C@@H](CC(N)=O)C(=O)N[C@@H](CCCNC(=N)N)C(=O)N(C)[C@@H](CCCC)C(=O)N[C@@H](CCCCC)C(=O)N2CCC[C@H]2C(=O)N[C@@H](C(C)(C)C)C(=O)N[C@@H](CO)C(=O)N[C@H](C(=O)NCCOCCOCC(=O)N[C@@H](CCC(=O)NCCOCCOCC(=O)NCCCCCCCCCCC(=O)O)C(=O)O)CSCC(=O)N[C@@H](Cc2ccccc2)C(=O)N[C@@H](Cc2c[nH]c3ccccc23)C(=O)N[C@@H](CC(=O)O)C1=O [compound 2226] ({CH2CO}-FWD[NHexGly]Y[Nle]NR[NMeNle][Ahp(2)]P[Tle]SC[AEEA][γGlu][AEEA][Aun]-OH; thioether N-14)	24.4
CCCCCCN1CC(=O)N[C@@H](Cc2ccc(O)cc2)C(=O)N[C@@H](CCCC)C(=O)N[C@@H](CC(N)=O)C(=O)N[C@@H](CCCNC(=N)N)C(=O)N(C)[C@@H](CCCC)C(=O)N[C@@H](CCCCC)C(=O)N2CCC[C@H]2C(=O)N[C@@H](C(C)(C)C)C(=O)N[C@@H](CO)C(=O)N[C@H](C(=O)NCCOCCOCC(=O)N[C@@H](CCC(=O)NCCOCCOCC(=O)NCCCCCCCCCCC(=O)O)C(=O)O)CSCC(=O)N[C@@H](Cc2ccc3ccccc3c2)C(=O)N[C@@H](Cc2ccc(O)cc2)C(=O)N[C@@H](CC(=O)O)C1=O [compound 2227] ({CH2CO}-[2Nal]YD[NHexGly]Y[Nle]NR[NMeNle][Ahp(2)]P[Tle]SC[AEEA][γGlu][AEEA][Aun]-OH; thioether N-14)	41.5
CCCCCCN1CC(=O)N[C@@H](Cc2ccc(O)cc2)C(=O)N[C@@H](CCCC)C(=O)N[C@@H](CC(N)=O)C(=O)N[C@@H](CCCNC(=N)N)C(=O)N(C)[C@@H](CCCC)C(=O)N[C@@H](CCCCC)C(=O)N2CCC[C@H]2C(=O)N[C@@H](C(C)(C)C)C(=O)N[C@@H](CO)C(=O)N[C@H](C(=O)NCCOCCOCC(=O)N[C@@H](CCC(=O)NCCOCCOCC(=O)NCCCCCCCCCCC(=O)O)C(=O)O)CSCC(=O)N[C@@H](Cc2cccc(C)c2)C(=O)N[C@@H](Cc2c[nH]c3ccccc23)C(=O)N[C@@H](CC(=O)O)C1=O [compound 2228] ({CH2CO}-[Phe(3-Me)]WD[NHexGly]Y[Nle]NR[NMeNle][Ahp(2)]P[Tle]SC[AEEA][γGlu][AEEA][Aun]-OH; thioether N-14)	38.8
CCCCCCN1CC(=O)N[C@@H](Cc2ccc(O)cc2)C(=O)N[C@@H](CCCC)C(=O)N[C@@H](CC(N)=O)C(=O)N[C@@H](CCCNC(=N)N)C(=O)N(C)[C@@H](CC(C)C)C(=O)N[C@@H](CCCCC)C(=O)N2CCC[C@H]2C(=O)N[C@@H](C(C)(C)C)C(=O)N[C@@H](CO)C(=O)N[C@H](C(=O)NCCOCCOCC(=O)N[C@@H](CCC(=O)NCCOCCOCC(=O)NCCCCCCCCCCC(=O)O)C(=O)O)CSCC(=O)N[C@@H](Cc2ccccc2)C(=O)N[C@@H](Cc2c[nH]c3ccccc23)C(=O)N[C@@H](CC(=O)O)C1=O [compound 2229] ({CH2CO}-FWD[NHexGly]Y[Nle]NR[NMeL][Ahp(2)]P[Tle]SC[AEEA][γGlu][AEEA][Aun]-OH; thioether N-14)	33.1
CCCCCCN1CC(=O)N[C@@H](Cc2ccc(O)cc2)C(=O)N[C@@H](CC(C)C)C(=O)N[C@@H](CC(N)=O)C(=O)N[C@@H](CCCNC(=N)N)C(=O)N[C@@H](CC(C)C)C(=O)N[C@@H](CCCCC)C(=O)N2CCC[C@H]2C(=O)N[C@@H](C(C)(C)C)C(=O)N[C@@H](CO)C(=O)N[C@H](C(=O)NCCOCCOCC(=O)N[C@@H](CCC(=O)NCCOCCOCC(=O)NCCCCCCCCCCC(=O)O)C(=O)O)CSCC(=O)N[C@@H](Cc2ccccc2)C(=O)N[C@@H](Cc2c[nH]c3ccccc23)C(=O)N[C@@H](CC(=O)O)C1=O [compound 2230] ({CH2CO}-FWD[NHexGly]YLNRL[Ahp(2)]P[Tle]SC[AEEA][γGlu][AEEA][Aun]-OH; thioether N-14)	28.4
